The source of these data is patent US6855843B2, “Inhibitors of α4 mediated cell adhesion” (Tanabe Seiyaku Co., Ltd., priority 1998, dated 2005).

In series [1] the target is T1, α4β7 (adhesion of RPMI cells to CS-1) (Homo sapiens, UniProt P13612+P26010).
T1 construct: endogenous in cells
T1 sequence (P13612 34-1032): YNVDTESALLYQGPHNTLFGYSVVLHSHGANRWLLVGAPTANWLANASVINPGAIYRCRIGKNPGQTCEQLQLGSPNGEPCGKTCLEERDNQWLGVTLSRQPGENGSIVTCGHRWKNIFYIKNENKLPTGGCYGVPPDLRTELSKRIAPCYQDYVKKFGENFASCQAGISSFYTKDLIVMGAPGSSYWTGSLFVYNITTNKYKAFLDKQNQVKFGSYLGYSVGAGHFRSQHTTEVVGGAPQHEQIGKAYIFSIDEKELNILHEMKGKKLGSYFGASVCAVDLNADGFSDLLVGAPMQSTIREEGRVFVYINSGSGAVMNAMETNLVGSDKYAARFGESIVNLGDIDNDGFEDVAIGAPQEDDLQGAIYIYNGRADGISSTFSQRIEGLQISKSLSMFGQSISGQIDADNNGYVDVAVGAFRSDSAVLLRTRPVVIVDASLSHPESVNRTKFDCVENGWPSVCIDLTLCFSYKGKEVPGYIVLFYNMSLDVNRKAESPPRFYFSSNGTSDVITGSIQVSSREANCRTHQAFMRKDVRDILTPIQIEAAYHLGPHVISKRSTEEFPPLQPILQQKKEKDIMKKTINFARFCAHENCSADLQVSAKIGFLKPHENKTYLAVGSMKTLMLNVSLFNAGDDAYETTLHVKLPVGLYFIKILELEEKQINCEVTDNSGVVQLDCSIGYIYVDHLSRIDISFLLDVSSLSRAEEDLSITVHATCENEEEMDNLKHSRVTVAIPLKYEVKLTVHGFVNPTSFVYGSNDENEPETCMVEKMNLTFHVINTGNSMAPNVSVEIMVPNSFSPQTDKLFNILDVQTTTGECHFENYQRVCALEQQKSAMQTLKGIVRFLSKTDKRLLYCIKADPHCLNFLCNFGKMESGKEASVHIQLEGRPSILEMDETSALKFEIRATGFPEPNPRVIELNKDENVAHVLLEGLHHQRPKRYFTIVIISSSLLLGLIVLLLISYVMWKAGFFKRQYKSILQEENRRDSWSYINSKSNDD
T1 sequence (P26010 20-798): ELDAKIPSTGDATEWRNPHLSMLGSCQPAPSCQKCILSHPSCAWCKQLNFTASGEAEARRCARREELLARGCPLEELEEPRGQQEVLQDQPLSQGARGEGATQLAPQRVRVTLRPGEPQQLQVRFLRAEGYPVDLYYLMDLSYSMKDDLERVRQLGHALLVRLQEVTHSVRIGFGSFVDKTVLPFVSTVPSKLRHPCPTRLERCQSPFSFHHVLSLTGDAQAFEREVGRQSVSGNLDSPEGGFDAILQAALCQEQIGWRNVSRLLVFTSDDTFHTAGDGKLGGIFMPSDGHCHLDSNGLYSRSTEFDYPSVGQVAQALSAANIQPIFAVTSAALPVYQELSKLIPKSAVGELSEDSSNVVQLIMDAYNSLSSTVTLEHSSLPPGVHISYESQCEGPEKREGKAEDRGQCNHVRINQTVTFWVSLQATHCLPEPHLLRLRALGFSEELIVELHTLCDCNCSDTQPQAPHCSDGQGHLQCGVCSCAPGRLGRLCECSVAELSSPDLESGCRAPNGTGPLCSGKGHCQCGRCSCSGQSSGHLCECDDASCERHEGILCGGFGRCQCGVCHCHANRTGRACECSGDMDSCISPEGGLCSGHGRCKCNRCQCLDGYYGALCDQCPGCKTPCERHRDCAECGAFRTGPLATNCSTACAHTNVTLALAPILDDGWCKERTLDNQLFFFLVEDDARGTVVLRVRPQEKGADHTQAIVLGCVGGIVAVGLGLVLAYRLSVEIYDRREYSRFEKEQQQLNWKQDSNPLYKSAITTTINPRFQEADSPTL
Briefly: RPMI-CS-1 cell adhesion assay. It counts as cell-based. The conditions noted are these: adhesion of RPMI B-cell line (expresses α4β7) to CS-1 peptide coated microwells; read-out: RPMI-CS-1 IC50 value range.

Consider `COc1cccc(OC)c1-c1ccc(C[C@H](NC(=O)c2c(Cl)cc(N)cc2Cl)C(=O)O)cc1` [Example 206, N-(4-Amino-2,6-dichlorobenzoyl)-4-(2,6-dimethoxyphenyl)-L-phenylalanine], for which the melting point is 221 to 222 °C (dec.). For the same compound, the IC50 in series [1] is below 300 nM.

As to `COC(=O)Nc1cc(Cl)c(C(=O)N[C@@H](Cc2ccc(-c3c(OC)cccc3OC)cc2)C(=O)O)c(Cl)c1` [Example 201], the melting point lay in the range of 147 to 149 °C. The IC50 in series [1] is below 300 nM.

`COc1ccccc1-c1ccc(C[C@H](NC(=O)C(C)c2c(Cl)cccc2Cl)C(=O)O)cc1` (stereo partly drawn) [Example 213, N-[2-(2,6-Dichlorophenyl)propionyl]-4-(2-methoxyphenyl)-L-phenylalanine] returned a melting point of 109 to 110 °C. In addition, in series [1], the half-inhibitory concentration (IC50) is 1000 to 5000 nM.

With `COc1cccc(OC)c1-c1ccc(C[C@H](NC(=O)c2c(Cl)cc(-c3cccn3C)cc2Cl)C(=O)O)cc1` [Example 302, N-[2,6-Dichloro-4-(1-methyl-2-pyrrolyl)benzoyl]-4-(2,6-dimethoxyphenyl)-L-phenylalanine], the melting point stood at 199 °C. Moreover, the IC50 in series [1] was below 300 nM.

In turn, `N#CCOc1cccc(OCC#N)c1-c1ccc(C[C@H](NC(=O)c2c(Cl)cccc2Cl)C(=O)O)cc1` [Example 231] showed a melting point of 175 to 176 °C. Moreover, the 50% inhibitory concentration (IC50) in series [1] is below 300 nM.

`CCNC(=S)Nc1ccc(C(=O)N[C@@H](Cc2ccc(-c3ccccc3OC)cc2)C(=O)O)c(Cl)c1` [Example 196] showed a melting point of 155 to 156 °C. In addition, in series [1], the concentration for half-maximal inhibition (IC50) was below 300 nM.

Compound `COCOc1ccc(OC)c(-c2ccc(C[C@H](NC(=O)c3c(Cl)cccc3Cl)C(=O)O)cc2)c1OC` [Example 174, N-(2,6-Dichlorobenzoyl)-4-(2,6-dimethoxy-3-methoxymethoxyphenyl)-L-phenylalanine] yielded a melting point of 156 to 157 °C. Moreover, the IC50 in series [1] is below 300 nM.

`COc1cc(C(F)(F)F)cc(OC)c1-c1ccc(C[C@H](NC(=O)c2c(Cl)cccc2Cl)C(=O)O)cc1` [Example 321, N-(2,6-Dichlorobenzoyl)-4-[2,6-dimethoxy-4-(trifluoromethyl)phenyl]-L-phenylalanine]: the melting point fell in the range of 231 to 232 °C. For the same compound, the IC50 in series [1] was below 300 nM.

As to `COc1ccccc1-c1ccc(C[C@H](NC(=O)c2ccc(NC(=S)Nc3ccccc3)cc2Cl)C(=O)O)cc1` [Example 197], the melting point was 145 to 146 °C. For the same compound, the half-maximal inhibitory concentration (IC50) in series [1] was 300 to 1000 nM.

As to `COc1cc(C(=O)O)cc(OC)c1-c1ccc(C[C@H](NC(=O)c2c(Cl)cccc2Cl)C(=O)O)cc1` [Example 172, N-(2,6-Dichlorobenzoyl)-4-(4-carboxy-2,6-dimethoxyphenyl)-L-phenylalanine], the melting point lay in the range of 277 to 278 °C. Further, the IC50 in series [1] was below 300 nM.

`COc1cccc(OC)c1-c1ccc(C[C@H](NC(=O)c2c(Cl)cc(-c3ccc[nH]3)cc2Cl)C(=O)O)cc1` [Example 303, N-[4-(2-Pyrrolyl)-2,6-dichlorobenzoyl]-4-(2,6-dimethoxyphenyl)-L-phenylalanine] yielded a melting point of 250 °C. In series [1], the IC50 is below 300 nM.

For the compound `CC(C)(C)OC(=O)n1cccc1-c1ccc(C[C@H](NC(=O)c2c(Cl)cccc2Cl)C(=O)O)cc1` [Example 329, N-(2,6-Dichlorobenzoyl)-4-(1-tert-butoxycarbonyl-2-pyrrolyl)-L-phenylalanine], the melting point lay within 98 to 99 °C. In series [1], the IC50 was 1000 to 5000 nM.

In turn, `COc1cc(C(=O)NCCN2CCOCC2)cc(OC)c1-c1ccc(C[C@H](NC(=O)c2c(Cl)cccc2Cl)C(=O)O)cc1` [Example 171] yielded a melting point of 268 to 269 °C. Further, the IC50 in series [1] is below 300 nM.

On to `COc1cc(C(=O)NCCCO)cc(OC)c1-c1ccc(C[C@H](NC(=O)c2c(Cl)cccc2Cl)C(=O)O)cc1` [Example 169], for which the melting point is 222 to 223 °C. Moreover, the 50% inhibitory concentration (IC50) in series [1] is below 300 nM.

In turn, `COc1cccc(OC)c1-c1ccc(C[C@H](NC(=O)c2c(Cl)cc(F)cc2Cl)C(=O)O)cc1` [Example 320, N-(2,6-Dichloro-4-fluorobenzoyl)-4-(2,6-dimethoxyphenyl)-L-phenylalanine] displayed a melting point of 206 to 207 °C. Besides, in series [1], the IC50 is below 300 nM.

In turn, `COc1ccccc1-c1ccc(C[C@H](NC(=O)c2ccc(Br)cc2Cl)C(=O)O)cc1` [Example 212] gave a melting point of 62 to 63 °C. Moreover, the IC50 in series [1] was in the range of 1000 to 5000 nM.

With `COc1cc(C(=O)NS(C)(=O)=O)cc(OC)c1-c1ccc(C[C@H](NC(=O)c2c(Cl)cccc2Cl)C(=O)O)cc1` [Example 173, N-(2,6-Dichlorobenzoyl)-4-[4-(methanesulfonylamino)carbonyl-2,6-dimethoxyphenyl]-L-phenylalanine], the melting point was 277 to 278 °C. Further, the half-maximal inhibitory concentration (IC50) in series [1] is below 300 nM.

The compound `COc1cc(NS(C)(=O)=O)cc(OC)c1-c1ccc(C[C@H](NC(=O)c2c(Cl)cccc2Cl)C(=O)O)cc1` [Example 163, N-(2,6-Dichlorobenzoyl)-4-[2,6-dimethoxy-4-[(methylsulfonyl)amino]phenyl]-L-phenylalanine] displayed a melting point of 154 to 155 °C. For the same compound, the IC50 in series [1] was below 300 nM.

`COC(=O)Nc1cc(OC)c(-c2ccc(C[C@H](NC(=O)c3c(Cl)cccc3Cl)C(=O)O)cc2)c(OC)c1` [Example 158, N-(2,6-Dichlorobenzoyl)-4-(4-methoxycarbonylamino-2,6-dimethoxyphenyl)-L-phenylalanine] had a melting point of 235 to 236 °C. For the same compound, the half-inhibitory concentration (IC50) in series [1] was below 300 nM.

`CNC(=O)Nc1ccc(OC)c(-c2ccc(C[C@H](NC(=O)c3c(Cl)cccc3Cl)C(=O)O)cc2)c1OC` [Example 324, N-(2,6-Dichlorobenzoyl)-4-[2,6-dimethoxy-3-(methylureido)phenyl]-L-phenylalanine]: the melting point lay in the range of 236 to 237 °C. In addition, the half-maximal inhibitory concentration (IC50) in series [1] was below 300 nM.

Turning to `COc1ccccc1-c1cccc(CC(NC(=O)c2c(Cl)cccc2Cl)C(=O)O)c1` (racemic) [Example 6, N-(2,6-Dichlorobenzoyl)-3-[2-methoxyphenyl)-DL-phenylalanine], the melting point turned out to be 104 °C. Also, the IC50 in series [1] was above 5000 nM.

`COc1cccc(OC)c1-c1ccc(C[C@H](NC(=O)c2c(Cl)cccc2Cl)C(=O)O)cc1NC(C)=O` [Example 297, N-(2,6-Dichlorobenzoyl)-4-(2,6-dimethoxyphenyl)-3-acetylamino-L-phenylalanine] returned a melting point of 142 to 144 °C. Also, in series [1], the IC50 was below 300 nM.

As to `CCCCC(O)c1cc(C[C@H](NC(=O)c2c(Cl)cccc2Cl)C(=O)O)ccc1-c1ccccc1OC` (some centres unmarked) [Example 342], the melting point lay within 158 to 159 °C. For the same compound, the IC50 in series [1] is below 300 nM.

Turning to `CNC(=S)Nc1cc(OC)c(-c2ccc(C[C@H](NC(=O)c3c(Cl)cccc3Cl)C(=O)O)cc2)c(OC)c1` [Example 162, N-(2,6-Dichlorobenzoyl)-4-[2,6-dimethoxy-4-(3-methylthioureido)phenyl]-L-phenylalanine], the melting point was in the range of 197 to 198 °C. For the same compound, in series [1], the IC50 is below 300 nM.

For `CNC(=O)c1cc(OC)c(-c2ccc(C[C@H](NC(=O)c3c(Cl)cccc3Cl)C(=O)O)cc2)c(OC)c1` [Example 165, N-(2,6-Dichlorobenzoyl)-4-(4-methylcarbamoyl-2,6-dimethoxyphenyl)-L-phenylalanine], the melting point fell in the range of 251 to 252 °C. In series [1], the IC50 is below 300 nM.

Broadly, the IC50 is the concentration that inhibits the measured activity by half. One may read the melting point as the temperature, or range, at which the solid turns liquid.
